Measurements taken from ChEMBL document CHEMBL1201862, “PubChem BioAssay data set” (2004).
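Method: 48-hour compound exposure of cells in 96-well plates, five concentrations, linear interpolation of endpoints. GI50 is the concentration that inhibits growth by half.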 Calls of active or inactive are those of the source. Cut-off read from the data, not from the text of the source: active = GI50 up to about 1.1 µM and inactive = higher.

Legend:
Experiment in all cases: NCI anticancer screen, dose series, 48 h
ACHN = system: ACHN
BT-549 = system: BT-549
CAKI-1 = system: CAKI-1
HCC 2998 = system: HCC 2998
HCT-116 = system: HCT-116
HOP-62 = system: HOP-62
HOP-92 = system: HOP-92
IGROV-1 = system: IGROV-1
K562 = system: K562
KM12 = system: KM12
LOX IMVI = system: LOX IMVI
MCF7 = system: MCF7
MDA-MB-231 = system: MDA-MB-231
OVCAR-4 = system: OVCAR-4
RXF 393 = system: RXF 393
SK-MEL-2 = system: SK-MEL-2
SN12C = system: SN12C
SNB-75 = system: SNB-75
SR = system: SR
OVCAR-8 = system: OVCAR-8

Compound	GI50 (ACHN)	GI50 (BT-549)	GI50 (CAKI-1)	GI50 (HCC 2998)	GI50 (HCT-116)	GI50 (HOP-62)	GI50 (HOP-92)	GI50 (IGROV-1)	GI50 (K562)	GI50 (KM12)	GI50 (LOX IMVI)	GI50 (MCF7)	GI50 (MDA-MB-231)	GI50 (OVCAR-4)	GI50 (RXF 393)	GI50 (SK-MEL-2)	GI50 (SN12C)	GI50 (SNB-75)	GI50 (SR)	GI50 (OVCAR-8)
C=C(Cl)/C(=C\Br)CCC(Cl)C(C)C.C=C(Cl)/C(=C\Cl)CCC(Cl)C(C)C (stereo unspecified)	16.8 µM (inactive)	15.2 µM (inactive)	17.8 µM (inactive)	18.7 µM (inactive)	16.1 µM (inactive)	18.3 µM (inactive)	15 µM (inactive)	14.7 µM (inactive)	4.03 µM (inactive)	14.3 µM (inactive)	1.67 µM (inactive)	10.6 µM (inactive)	16.5 µM (inactive)	16.3 µM (inactive)	11.3 µM (inactive)	13.6 µM (inactive)	17.2 µM (inactive)	18 µM (inactive)	6.53 µM (inactive)	–
Clc1ccc(OCc2nnc3sc(-c4ccc(-c5ccc(Cl)cc5Cl)o4)nn23)c(Cl)c1	20 µM (inactive)	21.4 µM (inactive)	28.7 µM (inactive)	17.9 µM (inactive)	15.7 µM (inactive)	15.4 µM (inactive)	18.9 µM (inactive)	17.8 µM (inactive)	24.1 µM (inactive)	32.6 µM (inactive)	19.3 µM (inactive)	31.6 µM (inactive)	16.3 µM (inactive)	35.5 µM (inactive)	14.8 µM (inactive)	16.3 µM (inactive)	18.9 µM (inactive)	15 µM (inactive)	2.58 µM (inactive)	17.9 µM (inactive)
CCC1(O)CC(O)c2c(O)c3c(c(O)c2C1C(=O)OC)C(=O)c1cccc(O)c1C3=O (stereo unspecified)	3 µM (inactive)	6.85 µM (inactive)	3.43 µM (inactive)	4.43 µM (inactive)	2.89 µM (inactive)	3.22 µM (inactive)	9.31 µM (inactive)	1.39 µM (inactive)	1.96 µM (inactive)	1.1 µM (active)	2.37 µM (inactive)	3.28 µM (inactive)	2.9 µM (inactive)	2.96 µM (inactive)	7.67 µM (inactive)	3.12 µM (inactive)	2.92 µM (inactive)	6.31 µM (inactive)	1.12 µM (inactive)	1.63 µM (inactive)
COc1ccc2c(c1)Cc1c(NCCN(C)C)ccc(C(=O)NCCCN(C)CCCNC(=O)c3ccc(NCCN(C)C)c4c3Nc3ccc(OC)cc3C4)c1N2	0.0343 µM (active)	0.148 µM (active)	0.753 µM (active)	< 0.01 µM (active)	< 0.01 µM (active)	< 0.01 µM (active)	0.143 µM (active)	< 0.01 µM (active)	< 0.011 µM (active)	< 0.01 µM (active)	< 0.01 µM (active)	< 0.01 µM (active)	0.0322 µM (active)	< 0.0184 µM (active)	0.154 µM (active)	< 0.01 µM (active)	< 0.01 µM (active)	< 0.01 µM (active)	< 0.01 µM (active)	< 0.01 µM (active)
O=C1CC2(CCC(O)(c3cccc4ccccc34)C(C(=O)c3cccc4ccccc34)C2)C(=O)c2ccccc2N1 (stereo unspecified)	–	46.7 µM (inactive)	25.9 µM (inactive)	26.1 µM (inactive)	23.6 µM (inactive)	10.5 µM (inactive)	7.43 µM (inactive)	> 100 µM (inactive)	15.6 µM (inactive)	–	32.8 µM (inactive)	36 µM (inactive)	17.7 µM (inactive)	–	4.1 µM (inactive)	> 100 µM (inactive)	72.8 µM (inactive)	10.7 µM (inactive)	14.2 µM (inactive)	> 100 µM (inactive)
CS(=O)(=O)OCCCNCCCOS(C)(=O)=O	392 µM (inactive)	1270 µM (inactive)	650 µM (inactive)	1280 µM (inactive)	1440 µM (inactive)	729 µM (inactive)	957 µM (inactive)	2110 µM (inactive)	1580 µM (inactive)	2080 µM (inactive)	569 µM (inactive)	679 µM (inactive)	1860 µM (inactive)	2130 µM (inactive)	1610 µM (inactive)	1940 µM (inactive)	533 µM (inactive)	1580 µM (inactive)	148 µM (inactive)	1650 µM (inactive)
CNC(=S)N/N=C(\C)c1nc2cccnc2[nH]1	38.9 µM (inactive)	27.9 µM (inactive)	33.8 µM (inactive)	19.1 µM (inactive)	30 µM (inactive)	25.6 µM (inactive)	20.6 µM (inactive)	62.7 µM (inactive)	95.3 µM (inactive)	46.6 µM (inactive)	43.6 µM (inactive)	34.3 µM (inactive)	42.7 µM (inactive)	4.12 µM (inactive)	62.2 µM (inactive)	> 63.5 µM (inactive)	98.2 µM (inactive)	> 70.6 µM (inactive)	28.4 µM (inactive)	48.9 µM (inactive)
CCOC(=O)/C(SC#N)=C(/N)N1CCCC1	> 100 µM (inactive)	> 100 µM (inactive)	> 100 µM (inactive)	> 100 µM (inactive)	> 100 µM (inactive)	> 100 µM (inactive)	> 100 µM (inactive)	> 100 µM (inactive)	> 100 µM (inactive)	> 100 µM (inactive)	> 100 µM (inactive)	> 100 µM (inactive)	> 100 µM (inactive)	> 100 µM (inactive)	> 100 µM (inactive)	> 100 µM (inactive)	> 100 µM (inactive)	> 94.8 µM (inactive)	> 100 µM (inactive)	> 100 µM (inactive)
Nc1nc(Cl)cc(NCC2(CCO)CCC2)n1	> 100 µM (inactive)	32.7 µM (inactive)	> 100 µM (inactive)	> 100 µM (inactive)	> 100 µM (inactive)	> 100 µM (inactive)	> 100 µM (inactive)	> 100 µM (inactive)	> 100 µM (inactive)	> 100 µM (inactive)	> 100 µM (inactive)	> 100 µM (inactive)	> 100 µM (inactive)	> 100 µM (inactive)	80.5 µM (inactive)	> 100 µM (inactive)	> 100 µM (inactive)	> 10 µM (inactive)	> 100 µM (inactive)	> 100 µM (inactive)
O=C1C(N2CCNCC2)=C(Cl)C(=O)c2ncccc21	> 10 µM (inactive)	> 10 µM (inactive)	> 10 µM (inactive)	> 10 µM (inactive)	1.86 µM (inactive)	> 10 µM (inactive)	3.25 µM (inactive)	> 10 µM (inactive)	> 10 µM (inactive)	> 10 µM (inactive)	–	3.02 µM (inactive)	> 10 µM (inactive)	> 10 µM (inactive)	> 10 µM (inactive)	> 10 µM (inactive)	> 10 µM (inactive)	> 10 µM (inactive)	> 10 µM (inactive)	6.19 µM (inactive)
Cc1cc(C)c(/C=C2\C(=O)Nc3ccccc32)[nH]1 [SEMAXANIB]	66.2 µM (inactive)	> 100 µM (inactive)	> 59.2 µM (inactive)	38.8 µM (inactive)	72.9 µM (inactive)	> 82.2 µM (inactive)	48.3 µM (inactive)	–	> 100 µM (inactive)	0.998 µM (active)	> 100 µM (inactive)	83.9 µM (inactive)	> 62.1 µM (inactive)	52.5 µM (inactive)	> 100 µM (inactive)	> 75.9 µM (inactive)	> 100 µM (inactive)	0.906 µM (active)	17.9 µM (inactive)	> 49.5 µM (inactive)
CC(NNC(=O)c1cc[n+]([BH2-]C#N)cc1)c1ccc(Cl)cc1Cl (stereo unspecified)	42.7 µM (inactive)	46.2 µM (inactive)	68.2 µM (inactive)	57.1 µM (inactive)	22.5 µM (inactive)	–	37.4 µM (inactive)	51.8 µM (inactive)	24.2 µM (inactive)	34.8 µM (inactive)	29.2 µM (inactive)	36 µM (inactive)	35 µM (inactive)	30.7 µM (inactive)	43.3 µM (inactive)	49.5 µM (inactive)	> 100 µM (inactive)	31.8 µM (inactive)	30.9 µM (inactive)	31.5 µM (inactive)
CN(C)/N=N/c1ccc(NC=O)cc1	> 100 µM (inactive)	> 100 µM (inactive)	> 100 µM (inactive)	> 100 µM (inactive)	> 100 µM (inactive)	> 100 µM (inactive)	> 100 µM (inactive)	> 100 µM (inactive)	43.3 µM (inactive)	> 100 µM (inactive)	> 100 µM (inactive)	> 100 µM (inactive)	> 100 µM (inactive)	> 100 µM (inactive)	> 100 µM (inactive)	> 100 µM (inactive)	> 100 µM (inactive)	> 100 µM (inactive)	48.6 µM (inactive)	> 100 µM (inactive)
COc1cc(C(=O)C2CC3(CCC2(O)c2cc(OC)c(OC)c(OC)c2)CC(=O)Nc2ccccc2C3=O)cc(OC)c1OC (stereo unspecified)	–	> 100 µM (inactive)	> 100 µM (inactive)	50.7 µM (inactive)	67.1 µM (inactive)	> 100 µM (inactive)	40.4 µM (inactive)	> 100 µM (inactive)	63.8 µM (inactive)	–	67.6 µM (inactive)	60.4 µM (inactive)	> 100 µM (inactive)	20.2 µM (inactive)	99.5 µM (inactive)	89.9 µM (inactive)	> 100 µM (inactive)	24.5 µM (inactive)	29.6 µM (inactive)	> 100 µM (inactive)
